Source: patent US8575306B2, “Target and method for inhibition of bacterial RNA polymerase” (Rutgers, The State University of New Jersey, priority 2002, dated 2013)
Entries after “also recorded” stand apart in the source; their conditions may differ. Where a SMILES comes first, the peptide text is derived from it.

Key:
RNAP [1] = assay: Cross-resistance with rifampicin; details: unpublished data
RNAP holoenzyme [2] = molecular target: T1, RNAP holoenzyme (Escherichia coli, UniProt P0A8T7); assay: Electrophoretic mobility shift assays (open-complex formation, lacUV5 promoter); assay type: biochemical; details: MccJ25 at 1, 10, or 100 μM
T1 construct: RNAP holoenzyme was prepared from, strain XE54/pREII-NHα; made in house; host or cells: E. coli strain XE54/pREII-NHα
Experimental: Following 15 min at 37° C., 0.5 μl 1 mg/ml heparin was added (to disrupt non-specific complexes (Cech and McClure (1980) Biochem. 19, 2440-2447)), and, following a further 2 min at 37° C., reaction mixtures were applied to 5% polyacrylamide slab gels (30:1 acrylamide/bisacrylamide; 6×9×0.1 cm) and electrophoresed in 90 mM Tris-borate (pH 8.0) and 0.2 mM EDTA (20 V/cm; 30 mm at 37° C.) and analyzed using an x/y fluorescence scanner (Storm 860; Molecular Dynamics, Inc.).

RNAP holoenzyme [3] = molecular target: T1, RNAP holoenzyme; assay: Fluorescence-detected abortive initiation assays; assay type: biochemical; details: iterative tri- and tetranucleotide synthesis
Experimental: Following 15 min at 37° C. 0.5 μl mg/ml heparin was added, and, following a further 2 min at 37° C., 1 μl of 0.25-5 mM (y-AmNS)UTP (Molecular Probes, Inc.) was added, and reaction mixtures were transferred to sub-micro fluorometer cuvettes (Starna Cells, Inc.). Following 2 min at 37° C., RNA synthesis was initiated by addition of 2.5 μl 10 mM ApA, and fluorescence emission intensity was monitored 5 min at 37° C. [excitation wavelength=360 nm and emission wavelength=500 nm; excitation and emission slit widths=4 nm; QuantaMaster QM1 spectrofluororaeter (PTI, Inc).]. The quantity of UMP incorporated into RINA was determined from the quantity of (γ−AmNS)UTP consumed, which, in turn, was calculated as follows (Schlageck et al. 1979): (γ−AmNS)UTPconsumed=[(γ−AmNS)UTP0](Ft−F0)/(12.4×F0) where (γ−AmNS)UTP0 is the quantity of (γ−AmNS)UTP at time 0, F0 is the fluorescence emission intensity at time 0, and Ft is the fluorescence emission intensity at time t. Data were fit to full-competitive, partial-competitive, full-noncompetitive, partial-noncompetitive, full-uncompetitive, partial-uncompetitive, full-mixed, and partial-mixed models of inhibition as in the preceding section.

RNAP [4] = molecular target: RNAP (Escherichia coli, UniProt P0A8T7); details: crude cell extracts; Delgado et al. (2001); cited from earlier work
RNAP holoenzyme [5] = molecular target: T1, RNAP holoenzyme; assay: Transcription assays (abortive initiation and elongation, lacUV5 promoter); assay type: biochemical
Experimental: (§1) MccJ25 interferes with a process common to both abortive initiation and elongation—i.e., NTP uptake, phosphodiester-bond formation, or translocation.
Following 15 min at 37° C., 0.5 μl 1 mg/ml heparin, was added, and, following a further 2 min at 37° C., RNA synthesis was initiated by addition of 2 μl 5 mM ApA and 125 μM (or 250 jiM, 500 μM, and 1 mM) each of [α-^32P]UTP (0.6 Bq/fmol), ATP, CTP, GTP. Following 5 min at 37° C., reactions were terminated by addition of 10 μl 80% formamide, 10 mM EDTA, 0.04% bromophenol blue, and 0.04% xylene cyanol. Products were heated 10 min at 90° C., resolved by urea-PAGE (Sambrook and Russell (2001). Molecular Cloning: A Laboratory Manual (Cold Spring Harbor, N.Y., Cold Spring Harbor Laboratory)), and quantified using an x/y storage-phosphor scanner (Storm 860; Molecular Dynamics, Inc.). Data were fit to full-competitive, partial-competitive, full-noncompetitive, partial-noncompetitive, full-uncompetitive, partial-uncompetitive, full-mixed, and partial-mixed models of inhibition using the Fit-To-Model feature of the SigmaPlot Enzyme Kinetics Module (SPSS, Inc.).

[6] = test system: Gram-negative bacterial species, including E. coli; details: Salomon and Farias (1992); cited from earlier work
[7] = molecular target: T2, [Ile931]β′-RNAP holoenzyme (Escherichia coli, UniProt P0A8T7, T931I); assay: Transcription assays with MccJ25-resistant RNAP derivative; assay type: biochemical
T2 construct: hexahistidine (C); made in house; host or cells: E. coli strain 397c (rpoC ts397) transformed with a pRL663 derivative
Experimental: as §1
RNAP holoenzyme was prepared from, strain XE54/pREII-NHα (thi pREII-NHα; Niu et al., (1996) Cell 87, 1123-1134) using metal-ion affinity chromatography and ion-exchange chromatography (Id.). (Ile931]β′-RNAP holoenzyme was prepared from strain 397c [rpoC^ts397 argG thi lac λcI857h80St68dlac^+); Christie et al., (1996) J. Bacteriol. 178, 6991-6993) transformed with a pRL663 derivative encoding [Ile931]β′-RNAP (constructed using site-directed mutagenesis (QuikChange Site-Directed Mutagenesis Kit; Stratagene, Inc).) using identical procedures. Yields typically were 6 mg. Purities typically were >95%.
Following 15 min at 37° C., 0.5 μl 1 mg/ml heparin, was added, and, following a further 2 min at 37° C., RNA synthesis was initiated by addition of 2 μl 5 mM ApA and 125 μM (or 250 jiM, 500 μM, and 1 mM) each of [α-^32P]UTP (0.6 Bq/fmol), ATP, CTP, GTP. […] Products were heated 10 min at 90° C., resolved by urea-PAGE (Sambrook and Russell (2001). Molecular Cloning: A Laboratory Manual (Cold Spring Harbor, N.Y., Cold Spring Harbor Laboratory)), and quantified using an x/y storage-phosphor scanner (Storm 860; Molecular Dynamics, Inc.). […]

[8] = MccJ25 at 1, 10, or 100 μM, 5 min at 37° C.

CC[C@H](C)[C@H](NC(=O)CNC(=O)[C@@H](NC(=O)[C@H](Cc1ccccc1)NC(=O)[C@H](Cc1ccc(O)cc1)NC(=O)[C@@H]1CCC(=O)NCC(=O)NCC(=O)N[C@@H](C)C(=O)NCC(=O)N[C@@H](Cc2c[nH]cn2)C(=O)N[C@@H](C(C)C)C(=O)N2CCC[C@H]2C(=O)N1)C(C)C)C(=O)NCC(=O)N[C@H](C(=O)N1CCC[C@H]1C(=O)N[C@H](C(=O)N[C@@H](CO)C(=O)N[C@@H](Cc1ccccc1)C(=O)N[C@@H](Cc1ccc(O)cc1)C(=O)NCC(=O)O)[C@@H](C)CC)[C@@H](C)O [MccJ25] (HELM PEPTIDE1{G.G.A.G.H.V.P.E.Y.F.V.G.I.G.T.P.I.S.F.Y.G}$PEPTIDE1,PEPTIDE1,1:R1-8:R3$$$V2.0)
cross-resistance with rifampicin (RNAP [1]): do not exhibit cross-resistance
effect on formation of open complex (RNAP holoenzyme [2]): no effect; also recorded: does not inhibit
mode of inhibition (RNAP holoenzyme [3]): partial-competitive
inhibition of RNAP-dependent transcription (RNAP [4]): inhibits
inhibition of formation of abortive products (7 nt and 8 nt RNA species) (RNAP holoenzyme [5]; [8]): inhibits
inhibition of formation of the full-length product (26 nt RNA species) (RNAP holoenzyme [5]; [8]): inhibits
NTP-concentration dependence of inhibition (RNAP holoenzyme [5]; NTP 12.5, 25, 50 and 100 μM): NTP-concentration-dependent
mode of inhibition (RNAP holoenzyme [5]; with respect to NTPs, 7-mer and 8-mer abortive products): partial competitive
bacteriocidal activity [6]: exhibits bacteriocidal activity
inhibition of transcription upon substitution of residue 931 of the RNAP β′ subunit (Thr931→Ile) [7]: overcome completely
